Measured values from paper PMC9249674, “A small-molecule Skp1 inhibitor elicits cell death by p53-dependent mechanism” (iScience, 2022).
Read-outs that look alike come from different tables or passages of the source.

Columns and labels:
Skp1^WT [1] = target: T1, Skp1^WT (Homo sapiens, UniProt P63208); test: Thermal shift assay (TSA); format: binding; conditions: protein 8 μM
T1 construct: recombinantly purify intact (Skp1^WT) and truncate (ΔSkp1^1−140; lacking H8-helix) forms of Skp1; His6; made in house; host or cells: Escherichia coli BL21 (DE3)
T1 sequence (P63208 whole entry, the tested form may be a part): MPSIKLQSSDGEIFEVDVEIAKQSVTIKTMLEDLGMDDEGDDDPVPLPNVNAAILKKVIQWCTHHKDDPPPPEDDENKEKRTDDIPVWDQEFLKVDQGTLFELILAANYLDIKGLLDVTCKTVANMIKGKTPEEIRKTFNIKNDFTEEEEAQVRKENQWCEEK
Text: (§1) TSA, also known as differential scanning fluorimetry (DSF), is used to identify the contribution of a ligand binding to an unfolding protein as a function of temperature. The detection involves increase in fluorescence of a fluorophore SYPRO Orange (Invitrogen) upon binding to the hydrophobic regions of the gradually unfolded protein. A ligand stabilizing a protein may increase the melting temperature (Tm). To detect the binding of Z0933M with Skp1, a gradient TSA was used, in which, protein samples were mixed with appropriate concentrations of ligand over the range of several folds. The protein (Skp1^WT or ΔSkp1^1−140) was kept constant at 8 μM, and the compound concentration was varied from 50 μM to 600 μM. For comparison with 6-OAP, a single concentration of 400 μM was tested with both Skp1^WT and ΔSkp1^1−140. All reactions were set up in final volume of 10 μL in 96-well plate with 1x SYPRO Orange (Invitrogen) and incubated with compounds on ice for 30 min. According to the experimental protocol, samples were heated at 0.5°C per minute, ranging from 30 to 90°C, and the fluorescence intensity was measured at the interval of 0.5°C. Appropriate buffer blank and protein-only controls were kept, and the shift in Tm was measured as ΔTm = Tm (ligand-protein) ‒ (protein-only). The resultant ΔTm values were plotted by using GraphPad Prism® v6.0 (San Diego, CA) and ORIGIN Lab softwares.

ΔSkp1^1−140 [2] = target: T2, ΔSkp1^1−140 (Homo sapiens, UniProt P63208); test: Thermal shift assay (TSA); format: binding; conditions: protein 8 μM
T2 construct: pETDuet-Skp1(1-140); His6; made in house; host or cells: Escherichia coli BL21 (DE3)
T2 sequence (P63208 1-140, stated change not applied): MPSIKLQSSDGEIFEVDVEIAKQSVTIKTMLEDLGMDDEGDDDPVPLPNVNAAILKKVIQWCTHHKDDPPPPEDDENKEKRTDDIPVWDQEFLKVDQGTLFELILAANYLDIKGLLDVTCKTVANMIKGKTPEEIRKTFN
Text: as §1

K562 = test: Cell viability assay (Cell-Titer GLO); format: cell-based; conditions: Homo sapiens, Leukemia, 48 hrs, read-out: Anti-proliferative EC50
Method: (§2) For cell viability, cells were seeded in 384 opaque-walled plates with clear bottoms at 300–500 cells per well (optimum density for growth) in a total volume of 20 μL of media. The media was according to culture conditions of each individual cell line (mentioned above). After 12 hrs, compounds were added in a total volume of 5 μL of media (two-fold diluted) to each well with final concentrations from 5 nM to 30 μM. The measurements were conducted 48 hrs after seeding of the cells. Then, 25 μL of Cell-Titer GLO reagent (Promega) was added, and luminescence was measured on an EnSpire multimode plate reader (PerkinElmer), according to the manufacturer’s instructions. The estimated in vitro half-maximal inhibitory concentration (EC50) values were calculated using GraphPad Prism® v6.0 (San Diego, CA) software. The cell viability for A549 cells was also performed for 72- and 96-hrs by using the same experimental conditions as described above.

MKN-7 = test: Cell viability assay (Cell-Titer GLO); format: cell-based; conditions: Homo sapiens; MKN-7^c; Gastric cancer; p53 null or mutant cancer cell lines; 48 hrs; read-out: Anti-proliferative EC50
Method: as §2

C4-2B = test: Cell viability assay (Cell-Titer GLO); format: cell-based; conditions: Prostate cancer, 48 hrs, read-out: Anti-proliferative EC50
Method: as §2

U2OS = test: Cell viability assay (Cell-Titer GLO); format: cell-based; conditions: Homo sapiens, Osteosarcoma, 48 hrs, read-out: Anti-proliferative EC50
Method: as §2

H1650 = test: Cell viability assay (Cell-Titer GLO); format: cell-based; conditions: Homo sapiens, NCI-H1650, Lung cancer, 48 hrs, read-out: Anti-proliferative EC50
Method: as §2

HCT116 = test: Cell viability assay (Cell-Titer GLO); format: cell-based; conditions: Homo sapiens, HCT-116, Colon carcinoma, 48 hrs, read-out: Anti-proliferative EC50
Method: as §2

Skp1^WT [3] = target: T1, Skp1^WT; test: LC-MS/MS analysis of in vitro binding; conditions: overnight incubation
ΔSkp1^1−140 [4] = target: T2, ΔSkp1^1−140; test: SPRi assay; format: binding
Method: Freshly deposited gold coated standard SPRi chips/slides (Plexera, LLC) were cleaned, and compound(s) at 10 mM concentration in 100% DMSO were spotted on the chips using a micropipette. After this, the slides were left for complete evaporation of DMSO (under vacuum) at room temperature for 2 hrs. […] The slides were subsequently washed with DMSO, ethanol, and finally with distilled water for 15 minutes (ultrasonically), respectively, to remove non-covalently bound compounds. After drying with nitrogen, the slides were assembled with flow cell and then mounted on SPRi instrument for measurement, or stored at 4°C to be used for later experiments.
All the experiments were carried out using the PlexArray® HT system (Plexera, LLC), which is based on surface plasmon resonance imaging. Oval regions of interests (ROIs) were set as 9 pixels × 7 pixels area in imaging area. ROIs of vehicle (DMSO) were used as controls for measurement of specific signals. […] A 1:3 mixture of glycine. HCL (pH 4.2) and 0.5% (v/v) SDS, respectively, was used to regenerate the surface and remove bound proteins from the small molecules enabling the sensor chip to be reused for additional analyte injections.
The Tris buffer (10 mM Tris-HCl pH 8.0, 100 mM NaCl), without any reducing agent, was used as both analyte and running buffer. […]

A549 cells [5] = test: Cell viability assay (Cell-Titer GLO); format: cell-based, human; conditions: for EC50: Homo sapiens
Method: as §2, with “The” for “For cell viability, cells were seeded in 384 opaque-walled plates with clear bottoms at 300–500 cells per well (optimum density for growth) in a total volume of 20 μL of media. The”

A549 cells [6] = test: Caspase-Glo 3/7 activity; format: cell-based, human; conditions: dose- and time-dependent treatment
Method: The activities of caspase-3/7, −8 and −9 were measured using Caspase-Glo® 3/7,8, and 9 assay kits (Promega, Madison, WI, USA) according to the manufacturer’s protocol. Briefly, the cells were plated over-night in a white 384 well microplate, and then treated as indicated with Z0933M. After treatment, 25 μL of each caspase substrate was added and incubated at room temperature for 30 min. Upon activation of caspase in the apoptotic cells, the substrate will give a luminescence signal after cleavage of the aminoluciferin-labelled synthetic tetrapeptide. Luminescent signals were detected using an EnSpire multimode plate reader (PerkinElmer). For inhibitor interventions and Skp1 overexpression, the experiments were performed in 96 well format.

[7] = tested on: panel of cell lines derived from hematologic and solid tumors; test: Cell viability, panel of cell lines; format: cell-based; conditions: all the lines tested with complete cell killing; read-out: EC50 values across the panel
Method: as §2

Skp1^F139A = target: T3, Skp1^F139A (Homo sapiens, UniProt P63208, F139A); test: LC-MS/MS analysis of in vitro binding; conditions: Skp1^F139A mutant, overnight incubation
T3 construct: His6; made in house; host or cells: Escherichia coli BL21 (DE3)
T3 sequence (P63208 whole entry F139A): as the sequence (P63208 whole entry, the tested form may be a part) above, with F139A counted along it

[8] = target: T4, Skp1 interaction with NIPA (Homo sapiens, UniProt P63208); test: Cell-based FRET assay in HEK293 cells; conditions: 4 hrs, increasing concentrations
T4 construct: host or cells: HEK293
T4 sequence (P63208 whole entry): as the sequence (P63208 whole entry, the tested form may be a part) above

Nc1ccc(-c2nc3ccccc3c3[nH]c4ccccc4c23)cc1 [Z0933M]
ΔTm at 50 µM (Skp1^WT [1]; 50 μM compound): 0.3 °C | ΔTm at 100 µM (Skp1^WT [1]; 100 μM compound): 0.6 °C | ΔTm at 200 µM (Skp1^WT [1]; 200 μM compound): 2.4 °C | ΔTm at 400 µM (Skp1^WT [1]; 400 μM compound): 7.8 °C | ΔTm at 600 µM (Skp1^WT [1]; 600 μM compound): 10.5 °C | ΔTm at 50 µM (ΔSkp1^1−140 [2]; 50 μM compound): 0.9 °C | ΔTm at 100 µM (ΔSkp1^1−140 [2]; 100 μM compound): 0.6 °C | ΔTm at 200 µM (ΔSkp1^1−140 [2]; 200 μM compound): 2.1 °C | ΔTm at 400 µM (ΔSkp1^1−140 [2]; 400 μM compound): 10.8 °C | ΔTm at 600 µM (ΔSkp1^1−140 [2]; 600 μM compound): 11.1 °C | EC50 (K562): 735 ± 30 nM | EC50 (MKN-7): > 30000 nM | EC50 (C4-2B): 1900 ± 70 nM | EC50 (U2OS): 970 ± 90 nM | EC50 (H1650): 2350 ± 450 nM | EC50 (HCT116): 2820 ± 330 nM | binding by LC-MS/MS (Skp1^WT [3]): robust binding | Kd (ΔSkp1^1−140 [4]): 40.4 ± 8.2 nM | anti-proliferative potency relative to 6-OAP (A549 cells [5]; A549 cells, 48 h, ratio of EC50 values): approximately 24 times | EC50 (A549 cells [5]; A549, Lung cancer, 48 h, read-out: Anti-proliferative EC50): 580 ± 70 nM | EC50 (A549 cells [5]; A549 cells, 72 hrs, read-out: EC50): 99 ± 1 nM | EC50 (A549 cells [5]; A549 cells, 96 hrs, read-out: EC50): 66 ± 18 nM | caspase 3/7 activity (A549 cells [6]): dose- and time-dependently induced caspase 3/7 activity | EC50 [7]: 250 to 4000 nM | binding by LC-MS/MS (Skp1^F139A): markedly reduced | inhibition of Skp1-NIPA interaction (FRET ratio) [8]: significant inhibition
